Data on 25 molecules can be found in US9012481B2, “Benzoarylureido compounds, and composition for prevention or treatment of neurodegenerative brain disease containing the same” (Korea Institute of Science and Technology, priority 2009, dated 2015).

One series has as its system BV-2 cells. Description: Cell viability (MTT analysis) of beta-amyloid treated BV-2 cells. Particulars: Mus musculus, BV-2 cells, average of three experiments; for viability at 50 µM: compound 50 μM for 24 hours after 50 μM beta-amyloid for 2 hours; for viability at 0.1 µM: compound 100 nM for 24 hours after 50 μM beta-amyloid for 2 hours; for viability at 1 µM: compound 1000 nM for 24 hours after 50 μM beta-amyloid for 2 hours. Format: cell-based. How it is done: Beta-amyloid (Aβ25-35, Sigma Chemical Co., St. Louis, Mo., USA) was diluted with aseptic desalted water and preservative solution (1 mM, GIBCO), and kept in aliquots at −70° C. To the treatment of beta-amyloid, beta-amyloid preservative solution was diluted to desired concentrations in a treatment medium (DMEM, GIBCO). The reagents were newly provided as a preservative solution (10 mM) under DMSO (dimethylsulfoxide), and diluted in treatment medium to desired concentrations.
BV-2 microglia cells (allotted from Pharmacology Division of Ajou University) were cultivated in DMEM (Dulbecco's Modified Eagle's Medium) supplemented with 5% fetal bovine serum (Invitrogen, Carlsbad, Calif., USA), sou/Ml penicillin (Invitrogen, Carlsbad, Calif., USA), and 50 μg/Ml streptomycin (Invitrogen, Carlsbad, Calif., USA) under the atmosphere condition with 5% CO2 and 95% air at 37° C. The medium was replaced once a day, the cells were plate-cultured in a density according to the scale of each experiment.
BV-2 cells were plate-cultured in 96-well plate at the density of 5×10^4, the cell viability was measured according to a conventional MTT analysis method and lactate dehydrogenase (LDH) analysis method. The MTT analysis depends on the metabolism ability of mitochondria of living cell, and reflexes intracellular redox states. The cultured cells were treated with MTT a solution (final concentration: 1 mg/Ml) for 4 hours. Deep blue formazan crystal generated in the original cells was dissolved in a lysis buffer, and then, the absorbance was detected at 595 nm with microplate reader. The LDH activity released from the culture medium was detected, which was evaluated as a cell death index. The culture medium was added to a reagent (test, Sigma Chemical Co, St. Louis, Mo., USA) containing sodium lactate, NADH and sodium pyruvate, and then, the absorbance reduction by NADH at 340 nm was measured. The result was calculated assuming that the LDH activity in homogenate solution of the non-treated control is 100%.
[…] For microscope analysis, BV-2 cells were used in 6-well plate at the density of 5×10^5 cells/well, for MTT analysis, BV-2 cells were used in 96-well plate at the density of 5×10^4 cells/well.
The obtained prevention effects of KHG25967 compound on toxicity induced by beta-amyloid in BV-2 cells were FIGS. 1A and 1b.
For MTT analysis, BV-2 cells were used on 96-well plate in the density of 5×10^4 cells/well. The quantitative analysis results (unit: %) for the cell viability obtained by MTT analysis were shown in Table 2, wherein the values are represented by the average of three experiments per each concentration.

Setting [1] is: BV-2, read-out: cell viability by MTT analysis, compound 500 nM for 24 hours after 50 μM beta-amyloid for 2 hours.
The mark [2] stands for this setting: compound 500 nM for 24 hours after 50 μM beta-amyloid for 2 hours, read-out: cell viability by MTT analysis.
[3] abbreviates: read-out: cell viability by MTT analysis.

Each structure is given as a SMILES string. Where two headings read alike, the source gives them in different places.

By viability is commonly meant a per cent measure of how many cells are alive, often set against a control. The term melting point denotes the temperature, or range, at which the solid turns liquid. As for `O=C([O-])CNC(=O)Nc1nc2c(Cl)cccc2s1.[K+]` [KHG26178, potassium 2-(3-(4-chlorobenzo[d]thiazole-2-yl)ureido)acetate], the melting point turned out to be 259 °C. For the same molecule, in the series on BV-2 cells (setting [1]), the viability at 0.5 µM is 59%.
In turn, `CCOC(=O)CNC(=S)Nc1nc2ccc(F)cc2s1` [KHG26310, ethyl 2-(3-(6-fluorobenzo[d]thiazole-2-yl)thioureido)acetate] registered a melting point of 160 °C. Further, the viability at 0.5 µM with BV-2 cells (setting [2]) came to 30%.
`O=C([O-])CCNC(=O)Nc1nc2ccccc2s1.[K+]` [KHG26220, potassium 3-(3-benzo[d]thiazole-2-ylureido)propanoate] yielded a melting point of 249 °C. Besides, in the series on BV-2 cells (setting [1]), the viability at 0.5 µM came out at 33%.
In the case of `CCOc1ccc2nc(NC(=S)NCC(=O)O)sc2c1` [KHG26336, 2-(3-(6-ethoxybenzo[d]thiazole-2-yl)thioureido)acetic acid], the melting point came out at 200 °C. Also, the viability at 0.5 µM in the series with BV-2 cells (setting [2]) is 67%.
Turning to `CCOC(=O)CCNC(=O)Nc1nc2ccccc2[nH]1` [KHG26027, ethyl 3-(3-1H-benzo[d]imidazole-2-ylureido)propanoate], the melting point was 264 °C. Further, the viability at 50 µM with BV-2 cells (setting [3]) came to 45%.
Take `O=C(O)CCCNC(=O)Nc1nc2ccccc2s1` [KHG26025, 4-(3-benzo[d]thiazole-2-ylureido)butanoic acid]: the melting point came to 210 °C. In the series with BV-2 cells, this molecule displayed a viability at 0.1 µM of 73% and a viability at 1 µM of 89%. Further, in the series on BV-2 cells (setting [3]), the viability at 50 µM was 90%.
`CCOC(=O)CNC(=O)Nc1nc2ccc(F)cc2s1` [KHG25956, ethyl 2-(3-(6-fluorobenzo[d]thiazole-2-yl)ureido)acetate] showed a melting point of 291 °C. In addition, the viability at 50 µM with BV-2 cells (setting [3]) turned out to be 36%.
Take `CCOC(=O)CNC(=S)Nc1nc2cc(C)c(C)cc2s1` [KHG26307, ethyl 2-(3-(5,6-dimethylbenzo[d]thiazole-2-yl)thioureido)acetate]: the melting point was determined as 255 °C. Also, in the series with BV-2 cells (setting [2]), the viability at 0.5 µM stood at 48%.
Molecule `CCOC(=O)CNC(=S)Nc1nc2c(C)cccc2s1` [KHG26306, ethyl 2-(3-(4-methylbenzo[d]thiazole-2-yl)thioureido)acetate] showed a melting point of 219 °C. Besides, the viability at 0.5 µM with BV-2 cells (setting [2]) amounted to 62%.
On the same counts, the results for `CCOC(=O)CNC(=S)Nc1nc2ccccc2n1C` [KHG26303, ethyl 2-(3-(1-methyl-1H-benzo[d]imidazole-2-yl)thioureido)acetate] are 185 °C and 48%.
In turn, `CCOC(=O)CNC(=S)Nc1nc2c(Cl)cccc2s1` [KHG26312, ethyl 2-(3-(4-chlorobenzo[d]thiazole-2-yl)thioureido)acetate] registered a melting point of 198 °C. Further, the viability at 0.5 µM in the series with BV-2 cells (setting [2]) came out at 55%.
As to `O=C(O)CCNC(=O)Nc1nc2ccccc2s1` [KHG26026, 3-(3-benzo[d]thiazole-2-ylureido)propanic acid], the melting point turned out to be 243 °C. In the series on BV-2 cells, this molecule showed a viability at 0.1 µM of 66% and a viability at 1 µM of 85%. Further, the viability at 50 µM with BV-2 cells (setting [3]) stood at 82%.
The molecule `CCOC(=O)CCNC(=O)Nc1nc2ccccc2s1` [KHG26005, ethyl 3-(3-benzo[d]thiazole-2-ylureido)propanoate] returned a melting point of 256 °C. Moreover, in the series on BV-2 cells (setting [3]), the viability at 50 µM came to 40%.
`CCOC(=O)CCNC(=O)Nc1nc2ccccc2n1C` [KHG26030, ethyl 3-(3-(1-methyl-1H-benzo[d]imidazole-2-yl)ureido)propanoate]: the melting point turned out to be 105 °C. In the series on BV-2 cells, this molecule gave a viability at 0.1 µM of 60% and a viability at 1 µM of 76%. The viability at 50 µM in the series with BV-2 cells (setting [3]) amounted to 75%.
Regarding `CCOC(=O)CNC(=S)Nc1nc2ccc(OCC)cc2s1` [KHG26309, ethyl 2-(3-(6-ethoxybenzo[d]thiazole-2-yl)thioureido)acetate], the melting point came to 183 °C. Also, the viability at 0.5 µM with BV-2 cells (setting [2]) was 65%.
On to `Cn1c(NC(=O)NCC(=O)O)nc2ccccc21` [KHG26280, 2-(3-(1-methyl-1H-benzo[d]imidazole-2-yl)ureido)acetic acid], for which the melting point came to 200 °C. Besides, the viability at 0.5 µM with BV-2 cells (setting [2]) turned out to be 33%.
Turning to `Cn1c(NC(=O)NCC(=O)[O-])nc2ccccc21.[K+]` [KHG26172, potassium 2-(3-(1-methyl-1H-benzo[d]imidazole-2-yl)ureido)acetate], the melting point was determined as 229 °C. Further, in the series with BV-2 cells (setting [1]), the viability at 0.5 µM turned out to be 68%.
For the molecule `CCOC(=O)CNC(=S)Nc1nc2ccc(OC)cc2s1` [KHG26308, ethyl 2-(3-(6-methoxybenzo[d]thiazole-2-yl)thioureido)acetate], the melting point was 324 °C. Further, the viability at 0.5 µM in the series with BV-2 cells (setting [2]) came to 44%.
With `Cc1cccc2sc(NC(=S)NCC(=O)O)nc12` [KHG26340, 2-(3-(4-methylbenzo[d]thiazole-2-yl)thioureido)acetic acid], the melting point stood at 214 °C. Further, the viability at 0.5 µM in the series on BV-2 cells (setting [2]) is 78%.
On the same counts, the results for `CCOC(=O)CNC(=S)Nc1nc2ccc(C)cc2s1` [KHG26305, ethyl 2-(3-(6-methylbenzo[d]thiazole-2-yl)thioureido)acetate] are 290.8 °C and 37%.
Taken in the same sequence, the figures for `Cn1c(NC(=S)NCC(=O)O)nc2ccccc21` [KHG26334, 2-(3-(1-methyl-1H-benzo[d]imidazole-2-yl)thioureido)acetic acid] were 172 °C and 75%.
As to `CCOC(=O)CNC(=O)Nc1nc2ccccc2n1C` [KHG26029, ethyl 2-(3-(1-methyl-1H-benzo[d]imidazole-2-yl)ureido)acetate], the melting point came out at 157 °C. In the series with BV-2 cells, the viability at 0.1 µM came out at 86% and the viability at 1 µM was found to be 73%. Besides, the viability at 50 µM with BV-2 cells (setting [3]) amounted to 70%.
With `O=C(NCCO)Nc1nc2ccccc2s1` [KHG26279, 1-(benzo[d]thiazole-2-yl)-3-(2-hydroxyethyl)urea], the melting point amounted to 223 °C. Moreover, the viability at 0.5 µM with BV-2 cells (setting [2]) was 36%.
With `COCCNC(=O)Nc1nc2ccccc2s1` [KHG26344, 1-(benzo[d]thiazole-2-yl)-3-(2-methoxyethyl)urea], the melting point was found to be 257 °C. Besides, the viability at 0.5 µM in the series on BV-2 cells (setting [2]) came to 58%.
The molecule `Cc1cc2nc(NC(=O)NCC(=O)[O-])sc2cc1C.[K+]` [KHG26180, potassium 2-(3-(5,6-dimethylbenzo[d]thiazole-2-yl)ureido)acetate] had a melting point of 278 °C. The viability at 0.5 µM in the series on BV-2 cells (setting [1]) amounted to 62%.
